Key:
[1] = tested on: primary human fibroblasts derived from IPF patients (LL29 cells); test: Inhibition of TGF-β1-induced fibrosis (αSMA staining) in primary human fibroblasts from IPF patients; type: cell-based; details: Fibroblast, 96 h, TGF-β1 20 ng/mL, 4 days, 11-point dose-response 10 μM to 1.87 nM
Source text: The above synthesized compounds were screened using primary human fibroblasts (derived from IPF patients) treated with TGF-β1 to determine their ability to inhibit the fibrotic process.
Primary human fibroblasts derived from IPF patients (LL29 cells) [^1Xiaoqiu Liu, et. al., “Fibrotic Lung Fibroblasts Show Blunted Inhibition by cAMP Due to Deficient cAMP Response Element-Binding Protein Phosphorylation”, Journal of Pharmacology and Experimental Therapeutics (2005), 315(2), 678-687; ^2Watts, K. L., et. al., “RhoA signaling modulates cyclin D1 expression in human lung fibroblasts; implications for idiopathic pulmonary fibrosis”, Respiratory Research (2006), 7(1), 88] were obtained from American Type Culture Collection (ATCC) and expanded in F12 medium supplemented with 15% Fetal Bovine Serum and Penicillin/Streptomycin.
Each compound was dissolved in DMSO as a 10 mM stock and used to prepare compound source plates. Serial dilution (1:2, 11-point dose-response curves from 10 μM to 1.87 nM) and compound transfer was performed using the ECHO 550 (Labcyte, Sunnyvale, Calif.) into 384-well clear bottom assay plates (Greiner Bio-One) with appropriate DMSO backfill for a final DMSO concentration of 0.1%. LL29 cells were plated at 1,500 cells/well in 80 μl/well F12 medium supplemented with 1% Fetal Bovine Serum. One hour after addition of the cells, TGF-β1 (Peprotech; 20 ng/mL) was added to the plates to induce fibrosis (ref. 1 and 2 above). Wells treated with TGF-β1 and containing DMSO were used as controls. Cells were incubated at 37° C. and 5% CO2 for 4 days. Following incubation for 4 days, SYTOX green nucleic acid stain (Life Technologies [Thermo Fisher Scientific]) was added to the wells at a final concentration of 1 uM and incubated at room temperature for 30 min. Cells were then fixed using 4% formaldehyde (Electron Microscopy Sciences), washed 3 times with PBS followed by blocking and permeabilization using 3% Bovine Serum Albumin (BSA; Sigma) and 0.3% Triton X-100 (Sigma) in PBS. Cells were then stained with antibody specific to α-smooth muscle actin (αSMA; Abcam) (ref 1 and 2 above) in 3% Bovine Serum Albumin (BSA; Sigma) and 0.3% Triton X-100 (Sigma) in PBS, and incubated overnight at 4° C. Cells were then washed 3 times with PBS, followed by incubation with Alexa Flor-647 conjugated secondary antibody (Life Technologies [Thermo Fisher Scientific]) and DAPI at room temperature for 1 hour. Cells were then washed 3 times with PBS and plates were sealed for imaging. αSMA staining was imaged by excitation at 630 nm and emission at 665 nm and quantified using the Compartmental Analysis program on the CellInsight CX5 (Thermo Scientific). Dead or apoptotic cells were excluded from analysis based on positive SYTOX green staining. % of total cells positive for αSMA were counted in each well and normalized to the average of 11 wells treated with TGF-β1 on the same plate using Dotmatics' Studies Software. The normalized averages (fold change over untreated) of 3 replicate wells for each compound concentration were used to create dose-responses curves and EC50 values were calculated using non-linear regression curve fit in the Dotmatics' Studies Software. The EC50 values are reported.

[2] = tested on: Wnt activity (Sp5-Luc reporter, SW480 colon carcinoma cells); test: Sp5-Luc Wnt reporter gene assay in SW480 colon carcinoma cells; type: cell-based; details: Homo sapiens; SW480 cells stably expressing Sp5-Luc reporter; 42 h incubation; BrightGlo luminescence normalized to DMSO
Source text: The screening assay for Wnt activity is described as follows. Reporter cell lines can be generated by stably transducing cancer cell lines (e.g., colon cancer) or primary cells (e.g., IEC-6 intestinal cells) with a lentiviral construct that includes a Wnt-responsive promoter driving expression of the firefly luciferase gene.
SW480 colon carcinoma cells were transduced with a lentiviral vector expressing luciferase with a human Sp5 promoter consisting of a sequence of eight TCF/LEF binding sites. SW480 cells stably expressing the Sp5-Luc reporter gene and a hygromycin resistance gene were selected by treatment with 150 μg/ml of hygromycin for 7 days. These stably transduced SW480 cells were expanded in cell culture and used for all further screening activities. For Sp5-Luc reporter gene assays, the cells were plated at 10,000 cells/well in 96-well plates with growth medium containing 10% fetal calf serum and incubated overnight at 37° C. and 5% CO2. Each compound was dissolved in DMSO as a 10 mM stock in standard j-vials and used to prepare compound source plates in dose-response format with 3-fold serial dilutions and a 10 mM top concentration. Compound transfer from serially diluted source plates to assay plates containing the cells was accomplished using a pintool (Multimek 96, Beckman equipped with V&P Scientific FP1S50H pins) based liquid handling protocol. This protocol used a slotted pin to transfer 50 nl of compound from a source plate well to an assay plate well containing 50 μl of cells in growth medium. […] Control wells received 50 nl of DMSO treatment for normalization and calculating IC50 values. The treated cells were incubated at 37° C. and 5% CO2 for an additional forty-two hours. Following incubation, the growth medium was removed and 50 μl of BrightGlo luminescence reagent (Promega) was added to each well of the 96-well assay plates. The plates were placed on an orbital shaker for 5 min and then luminescence was quantified on the Victor3 (Perkin Elmer) plate reader. Readings were normalized to DMSO only treated cells, and normalized activities were utilized for IC50 calculations using the dose-response log (inhibitor) vs. response-variable slope (four parameters) nonlinear regression feature available in GraphPad Prism 5.0 or 6.0.

## CN(C)c1cncc(-c2cnc3[nH]nc(-c4nc5c(-c6cccc(F)c6)nccc5[nH]4)c3c2)c1 [Compound 7, 5-(3-(4-(3-Fluorophenyl)-1H-imidazo[4,5-c]pyridin-2-yl)-1H-pyrazolo[3,4-b]pyridin-5-yl)-N,N-dimethylpyridin-3-amine]
[1]
  EC50: 365 nM
[2]
  IC50: 35.3 nM

## CN(C)Cc1cncc(-c2cnc3[nH]nc(-c4nc5c(-c6cccc(F)c6)nccc5[nH]4)c3c2)c1 [Compound 13, 1-(5-(3-(4-(3-Fluorophenyl)-1H-imidazo[4,5-c]pyridin-2-yl)-1H-pyrazolo[3,4-b]pyridin-5-yl)pyridin-3-yl)-N,N-dimethylmethanamine]
[1]
  EC50: 30 nM
[2]
  IC50: 339 nM

## O=C(Nc1cncc(-c2cnc3[nH]nc(-c4nc5c(-c6cccc(F)c6)nccc5[nH]4)c3c2)c1)C1CC1 [Compound 19, N-(5-(3-(4-(3-Fluorophenyl)-1H-imidazo[4,5-c]pyridin-2-yl)-1H-pyrazolo[3,4-b]pyridin-5-yl)pyridin-3-yl)cyclopropanecarboxamide]
[1]
  EC50: 27 nM
[2]
  IC50: 5 nM

## CC(C)CC(=O)Nc1cncc(-c2cnc3[nH]nc(-c4nc5c(-c6ccc(F)cc6)nccc5[nH]4)c3c2)c1 [Compound 28, N-(5-(3-(4-(4-Fluorophenyl)-1H-imidazo[4,5-c]pyridin-2-yl)-1H-pyrazolo[3,4-b]pyridin-5-yl)pyridin-3-yl)-3-methylbutanamide]
[1]
  EC50: 881 nM
[2]
  IC50: 37.7 nM

## CC(C)(C)C(=O)Nc1cncc(-c2cnc3[nH]nc(-c4nc5c(-c6ccc(F)cc6)nccc5[nH]4)c3c2)c1 [Compound 34, N-(5-(3-(4-(4-Fluorophenyl)-1H-imidazo[4,5-c]pyridin-2-yl)-1H-pyrazolo[3,4-b]pyridin-5-yl)pyridin-3-yl)pivalamide]
[1]
  EC50: 3060 nM
[2]
  IC50: 152 nM

## Fc1ccc(-c2nccc3[nH]c(-c4n[nH]c5ncc(-c6cncc(CN7CCCC7)c6)cc45)nc23)cc1 [Compound 40, 3-(4-(4-Fluorophenyl)-1H-imidazo[4,5-c]pyridin-2-yl)-5-(5-(pyrrolidin-1-ylmethyl)pyridin-3-yl)-1H-pyrazolo[3,4-b]pyridine]
[1]
  EC50: ≥ 9990 nM
[2]
  IC50: > 10000 nM

## CC(C)C(=O)Nc1cncc(-c2cnc3[nH]nc(-c4nc5c(-c6ccccc6F)nccc5[nH]4)c3c2)c1 [Compound 61, N-(5-(3-(4-(2-Fluorophenyl)-1H-imidazo[4,5-c]pyridin-2-yl)-1H-pyrazolo[3,4-b]pyridin-5-yl)pyridin-3-yl)isobutyramide]
[1]
  EC50: > 10000 nM
[2]
  IC50: 28 nM

## CC(C)(C)CC(=O)Nc1cncc(-c2cnc3[nH]nc(-c4nc5c(-c6ccccc6F)nccc5[nH]4)c3c2)c1 [Compound 68, N-(5-(3-(4-(2-Fluorophenyl)-1H-imidazo[4,5-c]pyridin-2-yl)-1H-pyrazolo[3,4-b]pyridin-5-yl)pyridin-3-yl)-3,3-dimethylbutanamide]
[1]
  EC50: 930 nM
[2]
  IC50: 95.7 nM

## O=C(Nc1cncc(-c2cnc3[nH]nc(-c4nc5c(-c6ccccc6F)nccc5[nH]4)c3c2)c1)C1CCCC1 [Compound 73, N-(5-(3-(4-(2-Fluorophenyl)-1H-imidazo[4,5-c]pyridin-2-yl)-1H-pyrazolo[3,4-b]pyridin-5-yl)pyridin-3-yl)cyclopentanecarboxamide]
[1]
  EC50: 611 nM
[2]
  IC50: 60.2 nM

## CC(C)C(=O)Nc1cncc(-c2cnc3[nH]nc(-c4nc5c(-c6cccnc6)nccc5[nH]4)c3c2)c1 [Compound 87, N-(5-(3-(4-(Pyridin-3-yl)-1H-imidazo[4,5-c]pyridin-2-yl)-1H-pyrazolo[3,4-b]pyridin-5-yl)pyridin-3-yl)isobutyramide]
[1]
  EC50: 9 nM
[2]
  IC50: > 10000 nM

## CC(C)Nc1cncc(-c2cnc3[nH]nc(-c4nc5c(-c6cccnc6)nccc5[nH]4)c3c2)c1 [Compound 90, N-Isopropyl-5-(3-(4-(pyridin-3-yl)-1H-imidazo[4,5-c]pyridin-2-yl)-1H-pyrazolo[3,4-b]pyridin-5-yl)pyridin-3-amine]
[1]
  EC50: ≥ 9990 nM
[2]
  IC50: 79.7 nM

## c1ccc(CNCc2cncc(-c3cnc4[nH]nc(-c5nc6c(-c7cccnc7)nccc6[nH]5)c4c3)c2)cc1 [Compound 101, N-Benzyl-1-(5-(3-(4-(pyridin-3-yl)-1H-imidazo[4,5-c]pyridin-2-yl)-1H-pyrazolo[3,4-b]pyridin-5-yl)pyridin-3-yl)methanamine]
[1]
  EC50: ≥ 9990 nM
[2]
  IC50: > 10000 nM

## Cc1ccncc1-c1cnc2[nH]nc(-c3nc4c(-c5ccncc5)nccc4[nH]3)c2c1 [Compound 109, 5-(4-Methylpyridin-3-yl)-3-(4-(pyridin-4-yl)-1H-imidazo[4,5-c]pyridin-2-yl)-1H-pyrazolo[3,4-b]pyridine]
[1]
  EC50: ≥ 9990 nM
[2]
  IC50: > 10000 nM

## O=C(Cc1ccccc1)Nc1cncc(-c2cnc3[nH]nc(-c4nc5c(-c6ccncc6)nccc5[nH]4)c3c2)c1 [Compound 114, 2-Phenyl-N-(5-(3-(4-(pyridin-4-yl)-1H-imidazo[4,5-c]pyridin-2-yl)-1H-pyrazolo[3,4-b]pyridin-5-yl)pyridin-3-yl)acetamide]
[1]
  EC50: ≥ 9990 nM
[2]
  IC50: > 10000 nM

## CCCC(=O)Nc1cncc(-c2cnc3[nH]nc(-c4nc5c(-c6ccncc6)nccc5[nH]4)c3c2)c1 [Compound 121, N-(5-(3-(4-(Pyridin-4-yl)-1H-imidazo[4,5-c]pyridin-2-yl)-1H-pyrazolo[3,4-b]pyridin-5-yl)pyridin-3-yl)butyramide]
[1]
  EC50: ≥ 9990 nM
[2]
  IC50: > 10000 nM

## CCNCc1cncc(-c2cnc3[nH]nc(-c4nc5c(-c6ccccn6)nccc5[nH]4)c3c2)c1 [Compound 136, N-((5-(3-(4-(Pyridin-2-yl)-1H-imidazo[4,5-c]pyridin-2-yl)-1H-pyrazolo[3,4-b]pyridin-5-yl)pyridin-3-yl)methyl)ethanamine]
[1]
  EC50: 9 nM
[2]
  IC50: > 10000 nM

## O=C(Nc1cncc(-c2cnc3[nH]nc(-c4nc5c(-c6ccccn6)nccc5[nH]4)c3c2)c1)c1ccccc1 [Compound 141, N-(5-(3-(4-(Pyridin-2-yl)-1H-imidazo[4,5-c]pyridin-2-yl)-1H-pyrazolo[3,4-b]pyridin-5-yl)pyridin-3-yl)benzamide]
[1]
  EC50: ≥ 9990 nM
[2]
  IC50: > 10000 nM

## CCCCC(=O)Nc1cncc(-c2cnc3[nH]nc(-c4nc5c(-c6ccccn6)nccc5[nH]4)c3c2)c1 [Compound 148, N-(5-(3-(4-(Pyridin-2-yl)-1H-imidazo[4,5-c]pyridin-2-yl)-1H-pyrazolo[3,4-b]pyridin-5-yl)pyridin-3-yl)pentanamide]
[1]
  EC50: 9 nM
[2]
  IC50: 6160 nM

Source: US9493487B2, “3-(1H-imidazo[4,5-C]pyridin-2-YL)-1H-pyrazolo[3,4-B]pyridine and therapeutic uses thereof” (Samumed, LLC, priority 2014, dated 2016)
